These results are taken from ChEMBL document CHEMBL1140011, “Discovery of cyclopentane- and cyclohexane-trans-1,3-diamines as potent melanin-concentrating hormone receptor 1 antagonists” (Bioorg Med Chem Lett, 2007).

The target in data set [1] is T1, Melanin-concentrating hormone receptor 1 (Homo sapiens, UniProt Q99705). The experiment in a line: Displacement of [125I]MCH from human MCHR1 expressed in HEK293 cells. The data set is classed as cell-based. On the technique in general: Loss of bound radioactivity is the signal in a displacement assay; it reports binding, not function.
Data set [2] can be described thus: Metabolic stability assessed as intrinsic clearance in human liver microsomes. It is filed as ADME, Microsome. (Microsomes from liver hold many membrane-bound enzymes, among them those of drug oxidation.)
Data set [3] deals with T1, Melanin-concentrating hormone receptor 1. In words: Antagonist activity at human MCHR1 expressed in HEK293 cells assessed as [35S]GTP-gamma-S accumulation. The data set is classed as functional, cell-based.
Data set [4] in a line: Half life in C57BL/6J mouse plasma at 20 umol/kg, iv and 20 umol/kg, po. It is filed as ADME, organism-based.
Another data set deals with Mus musculus. The experiment in a line: Cmax in C57BL/6J mouse brain at 20 umol/kg, iv and 20 umol/kg, po. The settings on record: in vivo. It is filed as ADME, organism-based.
The nature of data set [5]: Fraction unbound in C57BL/6J mouse plasma. It is filed as ADME, cell-free.
Data set [6] in a line: Cmax in C57BL/6J mouse plasma at 20 umol/kg, iv and 20 umol/kg, po. It is filed as ADME, organism-based.
Data set [7] in a line: Clearance in C57BL/6J mouse at 20 umol/kg, iv and 20 umol/kg, po. The note with it: in vivo. It is filed as ADME, organism-based.
Data set [8] is described as follows: Tmax in C57BL/6J mouse plasma at 20 umol/kg, iv and 20 umol/kg, po. The data set is classed as ADME, organism-based.
Data set [9] can be described thus: Tmax in C57BL/6J mouse brain at 20 umol/kg, iv and 20 umol/kg, po. The data set is classed as ADME, organism-based.
Data set [10] is described as follows: Volume of distribution at steady state in C57BL/6J mouse at 20 umol/kg, iv and 20 umol/kg, po. It is filed as ADME, organism-based. The settings on record: in vivo, read-out: Vdss.
Data set [11] in a line: Oral bioavailability in C57BL/6J mouse at 20 umol/kg. It is filed as ADME, organism-based. The note with it: in vivo.
Data set [12] can be described thus: Ratio of Cmax in brain to plasma in C57BL/6J mouse at 20 umol/kg, iv and 20 umol/kg, po. The note with it: read-out: BPR. The data set is classed as ADME, organism-based.

T1 sequence (Q99705 whole entry): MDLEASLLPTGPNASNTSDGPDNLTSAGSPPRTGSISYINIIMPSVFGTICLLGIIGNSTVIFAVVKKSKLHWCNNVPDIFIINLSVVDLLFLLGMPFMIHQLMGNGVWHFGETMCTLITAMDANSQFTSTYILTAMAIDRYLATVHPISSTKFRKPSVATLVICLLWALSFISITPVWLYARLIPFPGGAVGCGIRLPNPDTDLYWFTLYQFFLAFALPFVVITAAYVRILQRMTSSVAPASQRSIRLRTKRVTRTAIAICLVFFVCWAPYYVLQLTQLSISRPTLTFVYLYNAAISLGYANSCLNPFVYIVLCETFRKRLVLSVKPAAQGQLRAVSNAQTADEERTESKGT

A word on the IC50: it is the concentration at which inhibition is half-maximal. For the compound `COc1ccc2nc(N[C@H]3C[C@H]4C[C@@H]3[C@@H](NCc3ccsc3)C4)cc(C)c2c1`, the IC50 in [1] is 369 nM.
Compound `COc1ccc2nc(N3CCC(NCc4ccsc4)CC3)cc(C)c2c1` gave an IC50 in [1] of 2130 nM.
In the case of `COc1ccc2nc(N[C@H]3CCC[C@H](NCc4ccsc4)C3)c(C)cc2c1`, in [1], the IC50 stood at 1390 nM.
By microsomal CLint is commonly meant the capacity of the preparation to metabolise the compound, expressed as a volume cleared per time. As to `COc1ccc2c(C)cc(N[C@H]3CCC[C@H](NCc4ccc(Cl)c(Cl)c4)C3)nc2c1`, the microsomal CLint in data set [2] stood at 59 µL/min/mg. The compound further displayed an IC50 in data set [1] of 13 nM.
On to `c1ccc2nc(N[C@H]3CCC[C@H](NCc4ccsc4)C3)ccc2c1`, for which the IC50 was 234 nM in data set [3] and 68 nM in [1].
In the case of `COc1ccc2c(C)cc(N[C@H]3CC[C@H](NCc4cn(C)c5ccccc45)C3)nc2c1`, the intrinsic clearance (microsomal CLint) in data set [2] is under 12 µL/min/mg. Moreover, the 50% inhibitory concentration (IC50) in data set [3] came to 85 nM; in data set [1], 9 nM.
Regarding `COc1ccc2c(C)cc(N[C@H]3CCC[C@H](NCc4cn(C)c5ccc(Br)cc45)C3)nc2c1`, the microsomal CLint in data set [2] was determined as 41 µL/min/mg. In data set [1], this compound gave an IC50 of 61 nM.
As to `COc1ccc2c(C)cc(N[C@H]3CC[C@H](NCc4cn(C)c5cc(C#N)ccc45)C3)nc2c1`, in data set [2], the microsomal CLint is under 12 µL/min/mg. The IC50 stood at 118 nM in [3] and 33 nM in data set [1].
Turning to `COc1ccc2nc(NCC3CCCN(Cc4ccsc4)C3)cc(C)c2c1` (stereo not drawn), the half-maximal inhibitory concentration (IC50) in [1] amounted to 2990 nM.
For the compound `COc1ccc2c(C)cc(N[C@H]3CCC[C@H](NCc4cn(C)nc4C)C3)nc2c1`, in data set [1], the 50% inhibitory concentration (IC50) was 178 nM.
`COc1ccc2nc(N[C@H]3CC[C@H](NCc4ccsc4)C3)cc(C)c2c1` had a half-inhibitory concentration (IC50) in [1] of 62 nM.
Compound `COc1ccc2nc(NCCCCNCc3ccsc3)cc(C)c2c1` registered an IC50 in data set [1] of over 33000 nM.
Take `COc1ccc2c(C)cc(N[C@H]3CCC[C@H](NCc4cccc(OC(F)(F)F)c4)C3)nc2c1`: in data set [2], the microsomal CLint came out at 64 µL/min/mg. For the same compound, in data set [1], the IC50 is 15 nM.
Regarding `COc1ccc2c(C)cc(N[C@H]3CC[C@H](NCc4cn(C)c5ccc(C#N)cc45)C3)nc2c1`, in [2], the microsomal CLint was under 12 µL/min/mg. The same compound displayed an IC50 in [1] of 39 nM.
The compound `COc1ccc2nc(NCCCNCc3ccsc3)cc(C)c2c1` displayed a half-inhibitory concentration (IC50) in data set [1] of 15 nM.
On to `CN(C)c1cc(N[C@H]2CCC[C@H](NCc3ccsc3)C2)nc2ccccc12`, for which the microsomal CLint in data set [2] is 30 µL/min/mg. The IC50 came to 97 nM in data set [3] and 29 nM in [1].
As for `COc1ccc2nc(N[C@@H]3C[C@@H]4C[C@H]3[C@H](NCc3ccsc3)C4)cc(C)c2c1`, in data set [1], the half-inhibitory concentration (IC50) was determined as 5010 nM.
Take `COc1cc(N[C@H]2CCC[C@H](NCc3ccsc3)C2)nc2ccccc12`: the IC50 turned out to be 8 nM in data set [3] and 9 nM in data set [1].
For `COc1ccc2c(C)cc(N[C@H]3CCC[C@H](NCc4ccc(S(C)(=O)=O)cc4Cl)C3)nc2c1`, the microsomal CLint in data set [2] turned out to be 269 µL/min/mg. In [1], this compound came in with an IC50 of 50 nM.
Take `COc1cc(N[C@H]2CCC[C@H](NCc3ccsc3)C2)nc2ccc(OC(C)C)cc12`: in data set [1], the IC50 was 231 nM.
As to `COc1ccc2c(C)cc(N[C@H]3CCC[C@H](NCc4ccc5nsnc5c4)C3)nc2c1`, the microsomal CLint in data set [2] was 227 µL/min/mg. This compound also came in with a concentration for half-maximal inhibition (IC50) in data set [1] of 16 nM.
`COc1ccc2c(C)cc(N[C@H]3CCC[C@H](NCc4cccc5nsnc45)C3)nc2c1` came in with an IC50 in data set [1] of 10 nM.
For the compound `CC(=O)N(C)c1ccc2nc(N[C@H]3CCC[C@H](NCc4ccsc4)C3)ccc2c1`, in data set [1], the IC50 worked out at 2520 nM.
In the case of `COc1ccc2c(C)cc(N[C@H]3CC[C@H](NCc4cn(C)c5ccc(OCc6ccccc6)cc45)C3)nc2c1`, the microsomal CLint in data set [2] was 26 µL/min/mg. In data set [1], the IC50 was found to be 80 nM.
In turn, `COc1ccc2nc(N[C@H]3CCC[C@H](NCc4ccsc4)C3)cc(C)c2c1` displayed an IC50 in data set [1] of 3 nM.
Turning to `COc1ccc2nc(N[C@H]3CC[C@H](N(C)Cc4ccsc4)C3)cc(C)c2c1`, the IC50 in data set [1] was found to be 119 nM.
In the case of `COc1ccc2c(C)cc(N[C@H]3CC[C@H](NCc4cn(C)c5c(C#N)cccc45)C3)nc2c1`, in data set [2], the microsomal CLint was under 12 µL/min/mg. Moreover, the IC50 in data set [3] worked out at 127 nM; in data set [1], 20 nM.
Turning to `Clc1ccc2nc(N[C@H]3CCC[C@H](NCc4ccsc4)C3)ccc2c1`, the IC50 in data set [1] is 571 nM.
A word on the half-life: it is the time in which the quantity being followed falls by half. Read a high half-life as slow decline. As usually defined, the fraction unbound is free concentration divided by total concentration. A word on the Tmax: it is the time at which the peak concentration occurs. As usually defined, the bioavailability is the share of a dose that reaches the circulation, judged against a reference dose that is usually intravenous. With `COc1ccc2c(C)cc(N[C@H]3CC[C@H](NCc4cn(C)c5cccnc45)C3)nc2c1`, the half-life in [4] is 8.6 h. Moreover, the Cmax was 0.5 µmol/kg with Mus musculus and 3.78 µM in [6]. The fraction unbound in [5] came out at 0.065. For the same compound, in data set [7], the clearance turned out to be 15 mL/min/kg. Further, in data set [2], the intrinsic clearance (microsomal CLint) was 20 µL/min/mg. The time to peak (Tmax) in [8] stood at 24 h; in [9], 0.26 h. Moreover, the IC50 is 83 nM in data set [3] and 29 nM in [1]. In addition, the Vd in [10] is 7.6 L/kg. Besides, the bioavailability in data set [11] was found to be 100%. Besides, the Kp in data set [12] amounted to 0.13.
For `CN(C)c1ccc2nc(N[C@H]3CCC[C@H](NCc4ccsc4)C3)ccc2c1`, in data set [1], the IC50 came to 847 nM.
On to `COc1ccc2nc(NCCCNC(=O)c3ccsc3)cc(C)c2c1`, for which the IC50 in data set [1] is 106 nM.
For `Clc1cccc2ccc(N[C@H]3CCC[C@H](NCc4ccsc4)C3)nc12`, in data set [2], the microsomal CLint amounted to 15 µL/min/mg. The same compound had an IC50 in [1] of 5100 nM.
For `COc1ccc2nc(N[C@H]3C[C@@H]4C[C@H]3[C@@H](NCc3ccsc3)C4)cc(C)c2c1`, the IC50 in data set [1] was found to be 35 nM.
For `FC(F)(F)c1cc(N[C@H]2CCC[C@H](NCc3ccsc3)C2)nc2ccccc12`, the microsomal CLint in [2] is 68 µL/min/mg. The compound also gave an IC50 in [1] of 4800 nM.
In turn, `N#Cc1cc(N[C@H]2CCC[C@H](NCc3ccsc3)C2)nc2ccccc12` had an IC50 in data set [1] of 9920 nM.
Consider `COc1ccc2nc(N[C@@H]3CCC[C@@H](NCc4ccsc4)C3)cc(C)c2c1`, for which, in data set [1], the IC50 turned out to be 411 nM.
Take `COc1ccc2c(C)cc(N[C@H]3CCC[C@H](NCc4cn(C(=O)N(C)C)c5ccc(Cl)cc45)C3)nc2c1`: the microsomal CLint in data set [2] came out at 52 µL/min/mg. In data set [1], this compound returned an IC50 of 58 nM.
For `COc1cccc2nc(N[C@H]3CCC[C@H](NCc4ccsc4)C3)ccc12`, in data set [2], the microsomal CLint stood at 38 µL/min/mg. In addition, the IC50 in data set [3] was determined as 42 nM; in data set [1], 54 nM.
Turning to `COc1ccc(Br)c(CN[C@H]2CCC[C@H](Nc3cc(C)c4ccc(OC)cc4n3)C2)c1`, the IC50 in [1] stood at 28 nM.
As to `Cc1cc(N[C@H]2CCC[C@H](NCc3ccsc3)C2)nc2ccccc12`, the microsomal CLint in [2] is 60 µL/min/mg. Further, the values for the IC50 in data set [3] and in [1] were 59 nM and 7 nM, respectively.
In the case of `COc1ccc2c(C)cc(N[C@H]3CCC[C@H](NCc4cncc5ccccc45)C3)nc2c1`, the intrinsic metabolic clearance (microsomal CLint) in data set [2] was determined as 500 µL/min/mg. In addition, the IC50 in data set [1] is 22 nM.
`COc1ccc2nc(N(C)[C@H]3CC[C@H](NCc4ccsc4)C3)cc(C)c2c1` registered an IC50 in [1] of 2300 nM.
With `COc1ccc2c(C)cc(N[C@H]3CC[C@H](NCc4cn(C)c5c4ccc4cccnc45)C3)nc2c1`, in data set [2], the microsomal CLint was 12 µL/min/mg. In addition, the half-maximal inhibitory concentration (IC50) in data set [1] amounted to 71 nM.
`COc1ccc2c(C)cc(N[C@H]3CC[C@H](NCc4cn(C)c5ccc(OC(F)F)cc45)C3)nc2c1`: the microsomal CLint in data set [2] is 12 µL/min/mg. The IC50 in data set [3] was determined as 35 nM; in data set [1] it was 5 nM.
In the case of `COc1ccc2c(C)cc(N[C@H]3CCC[C@H](NCc4ccsc4)C3)nc2c1`, the microsomal CLint in data set [2] is 32 µL/min/mg. The values for the 50% inhibitory concentration (IC50) in data set [3] and in data set [1] were 1 nM and 0.1 nM, respectively.
Turning to `COc1ccc2nc(NCCNCc3ccsc3)cc(C)c2c1`, the IC50 in data set [1] is 3590 nM.
For the compound `COc1cc(N[C@H]2CCC[C@H](NCc3ccsc3)C2)nc2ccc(F)cc12`, the IC50 in data set [3] was 90 nM.
Compound `COc1ccc2c(C)cc(N[C@H]3CCC[C@H](NCc4cnccn4)C3)nc2c1` showed an IC50 in [1] of 89 nM.
`COc1ccc2nc(N[C@H]3CCC[C@H](NCc4ccsc4)C3)ccc2c1`: the microsomal CLint in data set [2] is 295 µL/min/mg. The IC50 in [3] is 25 nM; in [1], 57 nM.
